{"source": "ChEMBL document CHEMBL4342507", "about": "“Targeting YAP Degradation by a Novel 1,2,4-Oxadiazole Derivative via Restoration of the Function of the Hippo Pathway” (ACS Med Chem Lett, 2020)", "key": {"[1]": {"test_system": "PC-3", "experiment": "Downregulation of TAZ protein expression in human PC3 cells at 0.25 to 1.5 uM measured after 24 to 48 hrs by immunoblotting analysis", "assay_type": "functional, cell-based"}, "[2]": {"biological_target": "T1, Serine/threonine-protein kinase LATS1 (Homo sapiens) (UniProt O95835)", "T1 sequence (whole entry)": "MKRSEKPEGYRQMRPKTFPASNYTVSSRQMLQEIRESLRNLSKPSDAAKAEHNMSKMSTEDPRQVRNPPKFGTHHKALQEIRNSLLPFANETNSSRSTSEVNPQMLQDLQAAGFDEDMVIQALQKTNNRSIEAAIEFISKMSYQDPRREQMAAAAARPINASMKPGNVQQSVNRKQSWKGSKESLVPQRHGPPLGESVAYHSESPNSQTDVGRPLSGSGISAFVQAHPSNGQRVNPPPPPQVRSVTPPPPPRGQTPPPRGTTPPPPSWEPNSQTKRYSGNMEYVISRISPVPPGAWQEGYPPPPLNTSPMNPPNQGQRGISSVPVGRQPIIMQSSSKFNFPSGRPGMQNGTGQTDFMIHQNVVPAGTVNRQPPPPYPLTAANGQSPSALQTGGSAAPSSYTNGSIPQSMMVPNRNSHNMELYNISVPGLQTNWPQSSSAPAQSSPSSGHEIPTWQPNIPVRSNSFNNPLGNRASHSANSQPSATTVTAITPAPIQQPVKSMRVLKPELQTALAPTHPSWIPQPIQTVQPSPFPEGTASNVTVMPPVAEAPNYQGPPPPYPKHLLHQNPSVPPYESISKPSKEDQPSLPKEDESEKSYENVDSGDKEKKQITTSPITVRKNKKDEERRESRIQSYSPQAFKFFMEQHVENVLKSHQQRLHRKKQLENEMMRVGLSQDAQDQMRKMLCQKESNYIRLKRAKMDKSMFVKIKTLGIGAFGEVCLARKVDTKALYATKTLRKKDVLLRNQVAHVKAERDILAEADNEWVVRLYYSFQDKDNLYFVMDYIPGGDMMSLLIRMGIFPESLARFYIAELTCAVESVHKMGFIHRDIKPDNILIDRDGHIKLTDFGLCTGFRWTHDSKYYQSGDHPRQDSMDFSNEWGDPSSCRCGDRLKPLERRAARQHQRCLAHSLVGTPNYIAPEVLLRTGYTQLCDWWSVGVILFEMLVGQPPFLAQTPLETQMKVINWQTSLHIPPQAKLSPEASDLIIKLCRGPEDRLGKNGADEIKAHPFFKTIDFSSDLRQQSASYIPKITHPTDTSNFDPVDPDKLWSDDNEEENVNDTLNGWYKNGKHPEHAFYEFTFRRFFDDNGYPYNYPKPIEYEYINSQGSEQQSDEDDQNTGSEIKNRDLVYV", "experiment": "Activation of LATS1 in human SUM159 cells assessed as increase in phosphorylation at Ser909 residue measured after 12 hrs by Western blot analysis", "assay_type": "cell-based"}, "[3]": {"test_system": "SUM-159-PT", "experiment": "Effect on MST2 expression in human SUM159 cells at 0.25 to 1.5 uM measured after 12 hrs by Western blot analysis", "assay_type": "functional, cell-based"}, "[4]": {"test_system": "PC-3", "experiment": "Cytotoxicity against human PC3 cells assessed as reduction in cell viability measured after 72 hrs by MTT assay", "assay_type": "functional, cell-based"}, "[5]": {"biological_target": "T1, Serine/threonine-protein kinase LATS1 (Homo sapiens)", "experiment": "Activation of LATS1 in human MDA-MB-231 cells assessed as induction of YAP degradation by measuring suppression of YAP protein expression at 0.25 to 1.5 uM measured after 12 to 24 hrs by immunoblotting analysis", "assay_type": "cell-based"}, "[6]": {"biological_target": "T1, Serine/threonine-protein kinase LATS1 (Homo sapiens)", "experiment": "Activation of LATS1 in human PC9 cells assessed as increase in YAP phosphorylation at Ser397 at 0.25 to 1.5 uM measured after 24 to 48 hrs by immunoblotting analysis", "assay_type": "cell-based"}, "[7]": {"biological_target": "T1, Serine/threonine-protein kinase LATS1 (Homo sapiens)", "experiment": "Activation of LATS1 in human PC3 cells assessed as increase in YAP phosphorylation at Ser397 at 0.25 to 1.5 uM measured after 24 to 48 hrs by immunoblotting analysis", "assay_type": "cell-based"}}, "note": "Activity calls are given as the source filed them. The calls are words filed in the database; no cut-off is given here.", "data": [{"smiles": "CC(=O)Nc1ccc(NC(=O)Nc2cccc(-c3nc(-c4ccc(NC(=O)c5cccnc5)cc4Cl)no3)c2)cc1C(F)(F)F", "values": [{"measurement": "inhibition", "setting": "[1]", "result": "inactive"}, {"measurement": "Activity", "setting": "[2]", "result": "Dose-dependent effect"}, {"measurement": "Activity", "setting": "[3]", "result": "inactive"}, {"measurement": "Activity", "setting": "[4]", "result": "Dose-dependent effect"}, {"measurement": "IC50", "setting": "[4]; PC-3, 72 h", "result": "400 to 800", "unit": "nM"}, {"measurement": "Activity", "setting": "[5]", "result": "Active"}, {"measurement": "Activity", "setting": "[6]", "result": "inactive"}, {"measurement": "Activity", "setting": "[7]", "result": "inactive"}]}]}
